# Laboratory results from PubChem BioAssay (NCI).
# “And” between values parts separate entries of the source, which are not always exact repeats. Identical values can stand only once.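 Exposure lasted 48 hours, with cells grown in 96-well plates and compounds tested at five concentrations. At the TGI there is no net growth.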
# What was measured:
# Test in all cases: NCI anticancer screen, dose series, 48 h
# MALME-3M melanoma = test system: MALME-3M melanoma
# SK-OV-3 ovarian = test system: SK-OV-3 ovarian
# CAKI-1 renal = test system: CAKI-1 renal
# MDA-MB-435 = test system: MDA-MB-435
# MDA-N = test system: MDA-N
# UACC-62 melanoma = test system: UACC-62 melanoma
# HOP-62 NSCLC = test system: HOP-62 NSCLC
# MDA-MB-231 breast = test system: MDA-MB-231 breast
# RPMI-8226 leukemia = test system: RPMI-8226 leukemia
# SNB-19 CNS = test system: SNB-19 CNS
Structure (SMILES),TGI (MALME-3M melanoma),TGI (SK-OV-3 ovarian),TGI (CAKI-1 renal),TGI (MDA-MB-435),TGI (MDA-N),TGI (UACC-62 melanoma),TGI (HOP-62 NSCLC),TGI (MDA-MB-231 breast),TGI (RPMI-8226 leukemia),TGI (SNB-19 CNS)
CCOC(=O)Nc1cc2c(c(N)n1)N=C(c1ccc3ccccc3c1)CN2,19.3 µM,18.9 µM,36.9 µM,0.338 µM,1.04 µM,30.9 µM,,,,
COC(=O)NC1C(C)OC(OC2C/C=C(/C)C3C=CC4C(OC5CC(OC6CC(OC7CC(O)C(O)C(C)O7)C(OC7CC(O)C(OC)C(C)O7)C(C)O6)C(O)C(C)O5)C(C)CC(C)C4C3(C)/C(O)=C3\C(=O)OC4(CC(C)C(CO)=CC4/C=C\2C)C3=O)CC1(C)[N+](=O)[O-] (centres undefined),,,41.1 µM,> 100 µM,> 100 µM,17.8 µM,37.8 µM,40.2 µM,7.66 µM,> 100 µM
Nc1nc(OCC2CCCCC2)c2[nH]cnc2n1,> 50.4 µM,68.5 µM,58 µM,60.7 µM,58.3 µM,> 74.6 µM,53.9 µM,> 100 µM,55.5 µM,> 100 µM
COC(=O)/C=C1\CCCN1CCc1cc2c(cc1CC#N)OCO2,> 100 µM,> 100 µM,> 100 µM,45.1 µM,45.6 µM,> 100 µM,> 100 µM,> 100 µM,> 100 µM,> 100 µM
CS(=O)(=O)OCCN(CCOS(C)(=O)=O)c1ccc(/C=N/Nc2ncnc3nc[nH]c23)cc1,55.2 µM,> 100 µM,32.5 µM,,,27.8 µM,74.8 µM,,39 µM,> 100 µM
O=C(CSc1nc2ccc(I)cc2c(=O)n1Cc1ccccc1)NN1C(=O)c2ccccc2C1=O,62.8 µM,29.1 µM,33.5 µM,> 100 µM,> 100 µM,70.7 µM,24 µM,32 µM,> 100 µM,57.3 µM
Cc1[nH]n(-c2ccccc2)c(=O)c1C(N(CCc1ccccc1)C1=NCC(C)S1)(C(F)(F)F)C(F)(F)F (centres undefined),97.9 µM,95.1 µM,> 100 µM,> 100 µM,45.7 µM,24 µM,87.6 µM,65.6 µM,,> 100 µM
NCCNCCNc1ccc(NCCNCCN)c2c1C(=O)c1c(O)ccc(O)c1C2=O,> 100 µM,> 100 µM,> 100 µM,> 100 µM,> 100 µM,> 100 µM,> 100 µM,> 100 µM,> 100 µM,> 100 µM
C[N+](C)(C)CCN[N+]1(C)CCCc2ccccc21 (centres undefined),50.3 µM,> 100 µM,> 100 µM,> 100 µM,> 100 µM,> 100 µM,> 100 µM,> 100 µM,92.9 µM,> 100 µM
CCOP(=O)(OCC)C(Nc1cccc(F)c1)c1ccc(N(C)C)cc1 (centres undefined),> 100 µM,> 100 µM,> 100 µM,> 100 µM,> 100 µM,> 100 µM,> 100 µM,> 100 µM,> 100 µM,> 100 µM
Cc1ccc(N=NC(C2=NC(=O)CS2)c2nc3ccccc3[nH]2)cc1 (centres undefined),> 100 µM,> 100 µM,> 100 µM,,,> 100 µM,69.3 µM,,> 100 µM,> 100 µM
O=c1c2cc(S(=O)(=O)O)ccc2nc(COc2ccc(Oc3ccc(Cl)cc3Cl)cc2)n1C(=S)Nc1ccc(Cl)cc1,49 µM,49 µM,> 100 µM,39.3 µM,51 µM,31 µM,44.4 µM,,81.5 µM,> 100 µM
Cc1ccc([N+](=O)[O-])cc1S(=O)(=O)Nc1ccc(C2=NOC(c3ccccc3O)C2)cc1 (centres undefined),> 100 µM,> 100 µM,> 100 µM,3.22 µM,4.17 µM,98.9 µM,> 100 µM,> 100 µM,> 100 µM,17.7 µM
CC(=O)OCC1OC(Oc2cc(C)c(O)cc2C/C=C(\C)CC/C=C(\C)C[C@@H](C=C(C)C)OC(C)=O)C(O)C(OC(C)=O)C1OC(C)=O (some centres undefined),> 50 µM,> 50 µM,> 50 µM,> 50 µM,> 50 µM,> 50 µM,> 50 µM,> 50 µM,24.1 µM,> 50 µM
CC1(C=O)CCC23COC4(CCC5C6(C)CCC(OC7OCC(OC8OC(CO)C(O)C(OC9OC(CO)C(O)C(O)C9O)C8OC8OCC(O)C(O)C8O)C(O)C7OC7OC(CO)C(O)C(O)C7O)C(C)(C)C6CCC5(C)C4(C)CC2O)C3C1 (centres undefined),,2.57 µM,2.32 µM,,1.81 µM,3.17 µM,3.6 µM,0.95 µM,4.45 µM,1.09 µM
c1c2c(cc3c1OCO3)-c1cc3ccc4c(c3c[n+]1CC2)OCO4,3.04 µM,> 12.5 µM,> 12.5 µM,0.865 µM,0.595 µM,> 12.5 µM,> 12.5 µM,> 6.86 µM,> 12.5 µM,> 8.78 µM
CN(C)CCCN1c2ccc([N+](=O)[O-])cc2CCc2cc([N+](=O)[O-])ccc21,23.2 µM and 32.8 µM,32.4 µM and 29 µM,29.1 µM,26.5 µM and 29.5 µM,27.2 µM and 27 µM,26.3 µM and 28.2 µM,30.4 µM and 25.6 µM,30.3 µM and 22.6 µM,55.3 µM and 34.1 µM,32 µM and 29.1 µM
